The record followed here is ChEMBL document CHEMBL6182843, “Actinomycetes: Treasure trove for discovering novel antibiotic candidates” (2025).

In brackets after ≈: the same amount, converted by molar mass. Where only a bound is given, the exact number is not on record here.

Common to all, as to type: functional
One test deals with Acinetobacter baumannii. As to the kind of experiment: Antibacterial activity against Acinetobacter baumannii ATCC 19606 assessed as reduction in microbial growth by CLSI protocol based broth micro-dilution method.
In test [1] the test system is Staphylococcus aureus. As to the kind of experiment: Antibacterial activity against methicillin-resistant Staphylococcus aureus MB5393 assessed as reduction in bacterial growth incubated for 18 to 20 hrs by broth micro-dilution method. Particulars: time 18-20 hrs. A general note: In broth dilution the organism is exposed to a series of concentrations in liquid medium.

In test [2] the test system is Erysipelothrix rhusiopathiae. As to the kind of experiment: Antibacterial activity against Erysipelothrix rhusiopathiae WH13013 assessed as reduction in bacterial growth by CLSI protocol based MHB micro-silution method.
The subject of test [3] is Staphylococcus aureus. As to the kind of experiment: Antibacterial activity against Staphylococcus aureus ATCC 25923 assessed as reduction in bacterial growth by CLSI protocol based MHB micro-silution method.
The subject of another test is Streptococcus suis. As to the kind of experiment: Antibacterial activity against Streptococcus suis SC19 assessed as reduction in bacterial growth by CLSI protocol based MHB micro-silution method.
Test [4] concerns Escherichia coli. As to the kind of experiment: Antibacterial activity Escherichia coli ATCC 8739 assessed as reduction in bacterial growth.
The test system of test [5] is Bacillus subtilis. As to the kind of experiment: Antibacterial activity Bacillus subtilis ATCC 49343 assessed as reduction in bacterial growth.
Test [6] relates to Staphylococcus aureus. As to the kind of experiment: Antibacterial activity Staphylococcus aureus ATCC 25923 assessed as reduction in bacterial growth.
The subject of another test is Kocuria rhizophila. As to the kind of experiment: Antimicrobial activity against Kocuria rhizophila ATCC 9341 assessed as reduction in microbial growth.
Test [7] has as its system Bacillus subtilis. As to the kind of experiment: Antibacterial activity against Bacillus subtilis.
Test [8] deals with Escherichia coli. As to the kind of experiment: Antibacterial activity against Escherichia coli DH5a.
The subject of test [9] is Staphylococcus aureus. As to the kind of experiment: Antibacterial activity against Staphylococcus aureus.

As usually defined, the MIC is the lowest concentration found to suppress growth. `COc1cc(-c2ccccn2)nc(/C=N/O)c1S(C)(=O)=O`: in the test on Acinetobacter baumannii, the MIC came to 128 µg/mL.

Regarding `CC[C@@H](/C=C/[C@@H]1C/C=C(\C)[C@@H](O)[C@@H](C)[C@H](O[C@H]2O[C@H](CO)[C@H](O)[C@@H](O)[C@H]2O)C[C@@H](O)[C@@H](C)[C@H](O)C[C@@H]2C[C@H](O)[C@@H](O)[C@](O)(C[C@@H](O[C@H]3O[C@@H](C)[C@H](O)[C@@H](O[C@H]4C[C@H](N)[C@@H](O)[C@@H](C)O4)[C@@H]3O[C@H]3O[C@@H](C)[C@H](O)[C@@H](O)[C@@H]3O)[C@@H](C)/C=C/[C@@H](O)C[C@@H](O)[C@@H](C)/C=C/C(=O)O1)O2)[C@@H](O)[C@@H](C)[C@H](CC)O[C@H]1C[C@](C)(N)[C@H](O)[C@H](C)O1`, the MIC with Staphylococcus aureus [1] amounted to 2 µg/mL (≈ 1.26 µM).

Take `C[C@@H](O)Cc1cc(O)cc2c1C(=O)c1c(O)ccc(O)c1C2=O`: the values for the MIC (in test [2]; in the test with Staphylococcus aureus [3]; in the test on Streptococcus suis) were 6.25 µg/mL (≈ 19.9 µM), 0.78 µg/mL (≈ 2.48 µM) and 12.5 µg/mL (≈ 39.8 µM), respectively.

Take `C=C(C)[C@@H]1CC[C@H](C)[C@H]2CC/C(C)=C/CC/C(C)=C/[C@H]21`: the MIC with Escherichia coli [4] came out at 133 µg/mL (≈ 488 µM); with Bacillus subtilis [5] it was 48.4 µg/mL (≈ 178 µM); in the test on Staphylococcus aureus [6], 86.9 µg/mL (≈ 319 µM).

For the molecule `CC(C)C[C@H](NC(=O)/C=N/O)[C@@H](O)[C@@H](C)C(=O)O`, the MIC with Kocuria rhizophila was 50 µg/mL.

Turning to `C=C(C)[C@@H]1CC[C@H](C)[C@H]2CC/C(C)=C/C[C@H](O)/C(C(=O)O)=C/[C@H]21`, the MIC with Escherichia coli [4] stood at 125 µg/mL (≈ 394 µM); in the test on Bacillus subtilis [5], 1.1 µg/mL (≈ 3.45 µM); in the test with Staphylococcus aureus [6], 49.7 µg/mL (≈ 156 µM).

Regarding `COc1ccc(OC)c([C@@H](O)[C@@H](C)C(=O)c2ccc(OC)c(C(=O)O)c2O)c1`, the MIC against Bacillus subtilis [7] was 10 µg/mL (≈ 25.6 µM); with Escherichia coli [8], > 100 µg/mL; against Staphylococcus aureus [9], 18 µg/mL (≈ 46.1 µM).

With `CC[C@@H](/C=C/[C@@H]1C/C=C(\C)[C@@H](O)[C@@H](C)[C@H](O)C[C@@H](O)[C@@H](C)[C@H](O)C[C@@H]2C[C@H](O)[C@@H](O)[C@](O)(C[C@@H](O[C@H]3O[C@@H](C)[C@H](O)[C@@H](O[C@H]4C[C@H](N)[C@@H](O)[C@@H](C)O4)[C@@H]3O[C@H]3O[C@@H](C)[C@H](O)[C@@H](O)[C@@H]3O)[C@@H](C)/C=C/[C@@H](O)C[C@@H](O)[C@@H](C)/C=C/C(=O)O1)O2)[C@@H](O)[C@@H](C)[C@H](CC)O[C@H]1C[C@](C)(N)[C@H](O)[C@H](C)O1`, in the test on Staphylococcus aureus [1], the MIC came out at 1 µg/mL (≈ 0.702 µM).
